Data taken from patent publication US20130018023A1, “COMPOSITIONS FOR TOPICAL ADMINISTRATION” (SOL-GEL TECHNOLOGIES LTD., priority 2010, published 2013).

Columns and labels:
C. albicans (yeast) [1] = experiment: MIC determination, macrodilution method; assay type: cell-based, Candida albicans (ATCC 10231)
Excerpt: (§1) Methicillin-resistant Staphylococcus aureus (ATCC 33592) Coagualse Negative Staphylococcus epidermidis (Clinical Isolate) Vancomycin-Restistant Enterococcus faecali (ATCC 115992) Escherischia coli (ATCC 25922) Candida albicans (ATCC 10231)
(§2) Muller Hinton Agar (MHA) was used in this study for all bacteria: BD Cat #211438, Lot number 7155220. Yeast Dextrose Broth (Y/D B) was used to test C. albicans Yeast Dextrose Broth contains 10 g/L of yeast extract and 10 g/L of dextrose. Yeast Extract Cat #BD 210933, Lot number 8074851 (Expiration 2010-01-31). Dextrose Cat # BD215530 (Lot Number 6163169). Yeast Dextrose Agar (Y/D A) was used to test C. albicans Yeast Dextrose Agar contains 10 g/L of yeast extract and 10 g/L of dextrose and 17 g/L Agar. Agar Cat # BD 214010 (Lot Number 214010).
(§3) 1. The test organism, (bacteria or yeast) was obtained from frozen cultures. 2. Two days prior to the experiment, a portion of test bacterium from frozen culture collection was streaked and cultured on a non-selective agar plate (e.g. TSA). Plates were then incubated overnight at 37° C.±1° C. and the culture was examined for purity prior to use. […] 3. The day prior to the experiment, a portion of test organism was inoculated from the above-mentioned plate into MHB and vortexed. Incubate at 37° C.±1° C. for approximately eighteen hours. 4. For Candida albicans (ATCC 10231): The day prior to the experiment a portion of test organism was inoculated from the above-mentioned plate into Yeast/Dextrose Broth and vortexted. Bacterial MIC determination was conducted according to Kirby-Bauer macrodilution method. The bacterial/yeast density was adjusted to approximately 10^7 CFU/m; (Approx OD625 0.1±0.05). Stock solutions of each test article or combination were made by adding each test article to MHB to give an MHB/test article mixture of the following concentrations: Benzoyl Peroxide=6% in MHB and Mupiocin=256 μg/mL in MHB.
For bacterial: Mupirocin=256 μg/mL & BP at 0.0469% in MHB For yeast: Mupirocin=256 μg/mL & BP at 0.0115% in MHB […]

Staph epidermidis [2] = experiment: MIC determination, macrodilution method; assay type: cell-based
Excerpt: as §1
(§4) Muller Hinton Broth (MHB) was used in this study for all bacteria: BD Cat #211443, Lot numbers 9097650.
as §3, with “Stock solutions of each test article or combination were made by adding each test article to MHB to give an MHB/test article mixture of the following concentrations: Benzoyl Peroxide=6% in MHB and Mupiocin=256 μg/mL in MHB.” left out

MRSA [3] = experiment: MIC determination, macrodilution method; assay type: cell-based, Methicillin-resistant Staphylococcus aureus (ATCC 33592)
Excerpt: as §1, §4
as §3, with “Stock solutions of each test article or combination were made by adding each test article to MHB to give an MHB/test article mixture of the following concentrations: Benzoyl Peroxide=6% in MHB and Mupiocin=256 μg/mL in MHB.” left out

VRE [4] = experiment: MIC determination, macrodilution method; assay type: cell-based, Vancomycin-Restistant Enterococcus faecali (ATCC 115992)
Excerpt: as §1, §4
as §3, with “Stock solutions of each test article or combination were made by adding each test article to MHB to give an MHB/test article mixture of the following concentrations: Benzoyl Peroxide=6% in MHB and Mupiocin=256 μg/mL in MHB.” left out

E. Coli [5] = experiment: MIC determination, macrodilution method; assay type: cell-based, Escherischia coli (ATCC 25922); conditions: Escherichia coli, MHB, approx. 24 h at 37° C., value as mupirocin concentration, combination starts at BP 0.0469%
Excerpt: as §1, §4
as §3, with “Stock solutions of each test article or combination were made by adding each test article to MHB to give an MHB/test article mixture of the following concentrations: Benzoyl Peroxide=6% in MHB and Mupiocin=256 μg/mL in MHB.” left out

C. albicans (yeast) [6] = experiment: MBC & MFC determination, sub-culturing from MIC tubes; assay type: cell-based, Candida albicans (ATCC 10231); conditions: Candida albicans, value as mupirocin concentration
Excerpt: as §1, §2
(§5) 1. The test organism, (bacteria or yeast) was obtained from frozen cultures. 2. Two days prior to the experiment, a portion of test bacterium from frozen culture collection was streaked and cultured on a non-selective agar plate (e.g. TSA). Plates were then incubated overnight at 37° C.±1° C. and the culture was examined for purity prior to use. […] 3. The day prior to the experiment, a portion of test organism was inoculated from the above-mentioned plate into MHB and vortexed. Incubate at 37° C.±1° C. for approximately eighteen hours. 4. […]

Staph epidermidis [7] = experiment: MBC determination, sub-culturing from MIC tubes; assay type: cell-based; conditions: Staphylococcus epidermidis, mupirocin alone, read-out: Mupirocin MBC & MFC
Excerpt: as §1, §2, §5

MRSA [8] = experiment: MBC determination, sub-culturing from MIC tubes; assay type: cell-based, Methicillin-resistant Staphylococcus aureus (ATCC 33592); conditions: Staphylococcus aureus, mupirocin alone, read-out: Mupirocin MBC & MFC
Excerpt: as §1, §2, §5

VRE [9] = experiment: MBC determination, sub-culturing from MIC tubes; assay type: cell-based, Vancomycin-Restistant Enterococcus faecali (ATCC 115992); conditions: Enterococcus, value as mupirocin concentration, read-out: Mupirocin MBC & MFC
Excerpt: as §1, §2, §5

E. Coli [10] = experiment: MBC determination, sub-culturing from MIC tubes; assay type: cell-based, Escherischia coli (ATCC 25922); conditions: Escherichia coli, value as mupirocin concentration, read-out: Mupirocin MBC & MFC
Excerpt: as §1, §2, §5

Staph organisms = experiment: Cidal activity (MBC) against Staph organisms; assay type: cell-based, Staphylococcus
Protocol: Bacterial MBC determination was conducted according to Kirby-Bauer macro-dilution method. […] The tubes were incubated for approximately 24 h at 37° C.±1° C. and then scored for their MBC.

BPO in DMSO MIC (C. albicans (yeast) [1]; C. albicans, BPO alone dissolved in DMSO)	BPO in DMSO MIC (Staph epidermidis [2]; BPO alone dissolved in DMSO)	BPO in DMSO MIC (MRSA [3]; BPO alone dissolved in DMSO)	BPO in DMSO MIC (VRE [4]; BPO alone dissolved in DMSO)	SMILES	MIC (C. albicans (yeast) [1]; Candida albicans, C. albicans, approx. 24 h at 37° C., value as mupirocin concentration, combination starts at BP 0.0115%) [µg/mL]	Efficacy against the yeast C. albicans (in words) (C. albicans (yeast) [1]; at the concentrations tested)	MIC (Staph epidermidis [2]; Staphylococcus epidermidis, MHB, approx. 24 h at 37° C., value as mupirocin concentration, combination starts at BP 0.0469%) [µg/mL]	MIC (MRSA [3]; Staphylococcus aureus, MHB, approx. 24 h at 37° C., value as mupirocin concentration, combination starts at BP 0.0469%) [µg/mL]	MIC (VRE [4]; Enterococcus, MHB, approx. 24 h at 37° C., value as mupirocin concentration, combination starts at BP 0.0469%) [µg/mL]	MIC (E. Coli [5]) [µg/mL]	MBC (C. albicans (yeast) [6]) [µg/mL]	MBC (Staph epidermidis [7]) [µg/mL]	MBC (MRSA [8]) [µg/mL]	MBC (VRE [9]) [µg/mL]	MBC (E. Coli [10]) [µg/mL]	Cidal activity against Staph organisms (in words) (Staph organisms)
0.046% (0.19%)	0.1875% (0.78%)	0.1875% (0.78%)	0.1875% (0.78%)	O=C(OOC(=O)c1ccccc1)c1ccccc1 [BPO, Benzoyl peroxide]												
				C/C(=C\C(=O)OCCCCCCCCC(=O)O)C[C@@H]1OC[C@H](C[C@@H]2O[C@H]2[C@@H](C)[C@H](C)O)[C@@H](O)[C@H]1O [Mupirocin]	> 256	ineffective	1	1	64	64	> 256	32	32	> 256	> 256	Cidal activity
